Where a SMILES comes first, the peptide text is derived from it.
Experiments:
[1] = target: T1, NMDA receptor (Rattus norvegicus, UniProt P35439); assay: Pharmacologically isolated NMDAR EPSCs in hippocampal slices (CA1 pyramidal neurons); format: cell-based; conditions: NMDA receptor current, hippocampal slice assay; read-out: intrinsic activity relative to D-serine (full agonist)
T1 construct: from tissue; host or cells: rat hippocampal slices, CA1 pyramidal neurons
Description: Experiments were conducted on hippocampal slices from 14-18 day old Sprague-Dawley rats. Whole cell recordings were obtained from CA1 pyramidal neurons voltage clamped at −69 mV, in slices perfused with ACSF containing 0 mM [Mg2+] and 3 mM [Ca2+], plus 10 μM bicuculline and 20 μM CNQX to pharmacologically isolate NMDAR-dependent. EPSCs. Following bath applications of varying concentrations of GLYX-13 and D-serine, EPSCs were elicited by stimulating Schaffer collateral fibers with single electrical pulses (80 μs duration) once every 30 s.
Functional affinity, Kp, of GLYX-13 for the NMDAR was estimated using the equiactive concentration null method of Stephenson (Stephenson R. P. (1956) A modification of receptor theory. Br J Pharmacol Chemother 11(4):379-393) as exemplified by Kenakin (Kenakin T. P. (1997) Pharmacologic Analysis of Drug-Receptor Interaction (New York.)) In this analysis concentration-response curves are generated to full agonist, and to the full agonist in the presence of a set concentration of the partial agonist of interest (FIG. 18, Panel B). Equiactive concentrations arc read off the […] of each of the concentration-respouse curves and plotted as the concentration of full agonist [D-serine] alone and in the presence of partial agonist [GLYX-13] that produce equal effect.

[2] = tested on: rats; assay: Conditioned place preference; format: in vivo, rat; conditions: GLYX-13 10 mg/kg IV; ketamine 10 mg/kg IV
Description: Animals were trained with GLYX-13 (10 mg/kg, IV), ketamine (10 mg/kg, IV), or saline vehicle (1 mL/kg, IV) utilizing an unbiased two-chamber conditioned place preference apparatus.

[3] = tested on: rat hippocampal organotypic cultures; assay: LTP and LTD in rat hippocampal organotypic cultures; format: cell-based; conditions: in vitro
[4] = tested on: rats; assay: Porsolt test (Forced Swim Test), systemic dosing; format: in vivo, rat; conditions: for effect on floating times in the Porsolt test: Sprague Dawley rats, 20-60 min post dosing
Description: For the evaluation of the antidepressant actions of GLYX-13, the effect of GLYX-13 in the Porsolt test of depression was examined in rats. Porsolt testing is the most commonly used test for assessment of depression in animal model, Porsolt testing, also known as Forced Swim Test, is based on a behavioral trait that is sensitive to changes in affective state. During this test, the animal is placed in a tank (18 cm diameter×45 cm height) filled to 30 cm with 22-23° C. water. After placing the animal in the tank, the amount of time for which the rat is immobile when it stops struggling is measured. Porsolt test is based on the fact that antidepressants increase the latency to immobility and decrease the time for which the rat is immobile. […] The interpretation of the Porsolt test is that the antidepressants reinstate active coping mechanisms and decrease the passive immobility evoked by stress.
In order to evaluate the effectiveness of GLYX-13 as antidepressant, three month old FBNF1 rats were separated into two groups of 9 animals. The first group of rats was intravenously injected with 10 mg/kg GLYX-13 and the second group of animals was intravenously injected with PBS vehicle (1 ml/kg) in a blind manner via chronic subdural femoral vein access ports. Both groups of animals were injected 10 to 15 minutes before the start of testing.
For Porsolt testing, animals were given a 15 minute pre-test habituation in the tank to induce learned helplessness on day one. Following this, on the subsequent day, the animals were injected with GLYX-13 or vehicle 10-15 minutes before being placed into the tank for a 5 minute test session. After placing the animals in the tank, the amount of time for which each animal is immobile when it stops struggling (Mean Immobility Time) was measured. Decrease in Mean Immobility Time is a measure of the effectiveness of the antidepressant.
A second experiment was performed in the same manner as Example 1, except that 2-3 month Sprague-Dawley rats were used, and treated with either intravenous (1, 3, 10, 32 mg/kg), subcutaneous (1, 3, 10, 32, 56, 100 mg/kg) injections of GLYX-13 or saline vehicle (1 mg/ml) 15 (i,v.) or 20 (s.c.) min before the start of the final 5 min test session. Ketamine (10 mg/kg i.p.) was given 60 min befbre the start of testing (Garcia et al., (2008) Prog Neuropsychopharmacol Biol Psychiatry, 32, 140-144).
To determine whether the antidepressant effect of GLYX-13 was specific to the sequence of the GLXY-13 peptide, mean time (sec) spent floating in the Porsolt test was determined in groups of 12 three-month old Sprague Dawley rats administered with GLYX-13 (TPPT-NH2 (SEQ ID NO: 13); 3 mg/kg , i.v. tail vein), a scrambled peptide (PTPT-NH3(SEQ ID NO: 19); 3 mg/kg i.v. tail vein), or 0.9% saline vehicle (1 ml/kg, i.v. tail vein). Administration occurred 60 min before the 5 min testing session. Animals received a 15 min training swim session one day before dosing.
To evaluate whether the anti-depressive and anxiolytic effects of GLYX-13 would persist beyond a few hours, rats were tested in the Porsolt test and the Open Field test, described above. Groups of 10-11 three-month old Sprague-Dawley rats were pretreated with GLYX-13 (3 mg/kg i.v.), ketamine (10 mg/kg i.v.) or saline vehicle injection (1 mg/ml i.v. tail vein) 96 hrs before the start of testing. Animals received a single 15 min. training swim session one day before dosing. Animals were tested 96 hrs post dosing in the Porsolt test without any testing during the intervening period. Open field testing was conducted without pre-habituation 1 day after Porsolt testing (i.e. 120 hrs post dosing). Mean(±SEM) time (sec.) spent floating in the Porsolt test, time spent in the center compartment (sec.), and line crosses in the open field test were determined.
The Porsolt test adapted for use in rats was performed as above. […]

[5] = tested on: β-catenin; assay: Total β-catenin protein level in medial prefrontal cortex; format: in vivo, rat; conditions: 24 hrs after GLYX-13 3 mg/kg IV or ketamine 10 mg/kg IV
[6] = tested on: GluR1; assay: Total and phosphoserine-845 GluR1 by Western blot in medial prefrontal cortex; format: in vivo, rat; conditions: 24 hrs after GLYX-13 3 mg/kg IV or ketamine 10 mg/kg IV
From the text: Total and Phosphoserine-9 glycogen synthase kinase 3β (GSK-3β) were quantified by ELISA according to the manufacturer's instructions (catalog numbers ADI-900-144 and ADI-900-123A, Assay Designs, USA). Total and phosphoserine-845 GluR1 were quantified by Western blot.

[7] = tested on: rats; assay: Prepulse inhibition; format: in vivo, rat; conditions: Sprague-Dawley rats; GLYX-13 10 mg/kg IV tested 15 min post injection; ketamine 10 mg/kg IP tested immediately
Description: Animals were given intravenous injections of GLYX-13 (10 mg/kg) or saline via chronic indwelling femoral vein cannulae and tested 15 min post injection, or intraperitoneal ketamine (10 mg/kg) or saline vehicle (1 mL/kg IV or IP respectively) and tested immediately post injection for prepulse inhibition.

## C[C@@H](O)[C@H](N)C(=O)N1CCC[C@H]1C(=O)N1CCC[C@H]1C(=O)N[C@H](C(N)=O)[C@@H](C)O [GLYX-13, L-threonyl-L-prolyl-L-prolyl-L-threonine amide] (H-TPPT-NH2)
[1]
  Emax: 23%
[2]
  conditioned place preference, an indicator of abuse potential: did not exhibit either of these effects
[3]
  long-term depression (LTD): reducing
  long-term potentiation (LTP): markedly elevate
[4]; 10 mg/kg SC
  activity in the Porsolt test: active
[4]; 3-10 mg/kg IV
  effect on floating times in the Porsolt test: significantly (P<0.05) reduced floating times
[4]; 10-30 mg/kg SC
  effect on floating times in the Porsolt test: significantly (P<0.05) reduced floating times
[4]; single dose, rats
  onset of action: within minutes
[5]
  total β-catenin: reduced
[6]
  Phosphoserine-845 GluR1/total GluR1 ratio: increased
[7]
  prepulse inhibition, an indicator of dissociative effects: did not exhibit either of these effects

Source: patent US9796755B2, “Methods of treating depression and other related diseases” (Northwestern University, priority 2009, dated 2017)
